Measured values: patent publication US20260212981A1, “Methods of drug dosing based on early pharmacokinetics” (NUTROMICS […] LTD, priority 2022, published 2026)
Like-named read-outs stand apart in the source and are kept apart here.

Tests used:
Format in all cases: in vivo
[1] = Vancomycin concentration in dermal interstitial fluid (ISF) of human participants by wearable EAB sensor; details: 1 gram; for Kp: dermal interstitial fluid (ISF) relative to blood, intravenous, read-out: Proportion of vancomycin monitored in ISF compartment in comparison to blood; for Cmax: dermal interstitial fluid (ISF), iv, read-out: Cmax in ISF compartment
Source text: These human studies followed vancomycin levels using an EAB sensor (which may also be referred to as the “device”). The device was a self-contained wearable EAB sensor, constructed, having an on-board power supply, electrodes, and electronics, including a microprocessor and BlueTooth™ communications module.
The EAB sensor comprised four electrodes: two aptamer-coated working electrodes, a counter electrode, and a reference electrode. All electrodes were in the form of a microneedle configured to pierce the skin and contact the participant's ISF when fully inserted into the dermal tissues.
Each working electrode was coated with a vancomycin-sensitive single-stranded DNA-aptamer having a length of 28 nucleobases, obtained from Dr. Milan STOJANOVIC, New York campus research laboratory of The Trustees of Columbia University in the City of New York of 80 Claremont Avenue, 4th Floor, New York, NY 10027, United States.
A vancomycin-sensitive EAB sensor was placed onto the participant's upper arm (see FIG. 20), opposite the arm where vancomycin was being infused. The time of device application was recorded. The device was applied 30 minutes (+15 minutes) prior to administering the vancomycin infusion and the device was removed up to 10 hours post-cessation of the infusion.
(§1) 30 minutes (+15 minutes) post-application of the device, the participant received a single dose of vancomycin as an intravenous infusion (1 gram over 1 hour 40 minutes). The time of administration and completion of infusion was recorded.
Once applied to the participant, the DNA-based sensor electrodes were interrogated, and output treated as follows.
Square Wave Voltammetry (SWV) was used to interrogate the DNA-based sensor electrodes. Multiple steps were performed to convert the raw voltammograms obtained from the DNA-based sensor electrodes into a vancomycin concentration. The steps detailed below convert the raw SWV voltammograms into a signal that is indicative of the analyte concentration. • 1. Smooth the raw SWV voltammogram current versus voltage data to aid identification of the current peak and its magnitude. • 2. Apply a peak finding algorithm to the smoothed voltammogram to identify the position of the peak and to subtract a baseline current to determine a peak current magnitude. • 3. Use the determined peak currents magnitudes obtained at two different SWV interrogation frequencies (in this case 50 Hz and 300 Hz), when no vancomycin is present and when it is present to calculate an analyte concentration responsive signal (S). • 4. Smooth the S values over time, prior to applying a calibration function.
Steps 1 to 3 were used to analyse the calibration data as detailed below at (a) and (b), and steps 1 to 4 above in relation to the clinical data. • (a) Calibration data was produced from in vitro testing, where vancomycin is spiked into bovine plasma and tested using electrodes from the same production batch as those used in the clinical experiments (but not the electrode actually used in the clinical experiments). The purpose of this testing was to produce S versus known vancomycin concentration data that can be used to produce a calibration function to convert the S values into the corresponding measured vancomycin concentration values ([V]). • (b) Clinical experiment data, where the calibration function determined in (a) is applied to the S values produced by the in vivo electrodes in the clinical experiment, to convert them to measured vancomycin concentrations. […]

[2] = Skin surface temperature / adverse event monitoring of human participants during vancomycin infusion; details: for Physiologic response (skin surface temperature): temperature every 5 minutes
Source text: Reference is made to FIG. 21A and FIG. 21B each showing a computer-rendered representation of the device (10) used in these studies, indicating one of the microneedles (30), the power supply, being a battery (105), a printed circuit board (110) having various electronic components such as the communications module and microprocessor mounted thereon, and a thermistor (115) functioning to contact the skin surface of the participant and provide an estimation of the temperature of the underlying ISF.
Participants were monitored throughout the study duration for any adverse events. Given the duration of the study visit, participants were required to stay overnight. In the absence of any adverse events, participants were discharged the following morning after being observed for at least 15 minutes post removal of the device.
The EAB sensor used in these studies penetrated 1-2 mm into the dermal interstitial compartment with micron diameter electrodes coated with a specific DNA sequence for vancomycin detection. Additionally, the EAB sensor continuously monitored (every 5 minutes) surface temperature where the normal temperature range for a human is characterised between 31-35.5° C.

[3] = Vancomycin concentration in blood/serum of human participants (blood draws); details: blood, iv, 1 gram, single 1 gram IV infusion over 1 hour 40 minutes
Procedure: These human studies were performed at Monash Health, Monash Medical Centre, Clayton, Victoria 3168, Australia, under protocol reference number 2021/ETH80521 and protocol trial identified and registry 80521. Institutional Ethics Committee approval was obtained before commencement of the study.
as §1
Blood samples for the measurement of vancomycin concentrations were collected prior to the administration of vancomycin infusion, 30 minutes (±5 minutes) and 1 hour (±10 minutes) during the infusion, at the end of the infusion (±15 minutes) and then at 40 minutes (±15 minutes), 1.5 hours (±15 minutes), 2 hours (±15 minutes), 3 hours (±15 minutes), 4 hours (±15 minutes), 6 hours (±15 minutes), 8 hours (±15 minutes) and 10 hours (±15 minutes) after the infusion has been completed.
These human studies characterised perfusion dynamics. The study was performed in relation to a 1000 mg vancomycin dose administered via venous infusion.
ISF dynamics are captured in real-time high resolution (every 5 minutes) detection of vancomycin concentration. […] In comparison to blood (Cmax, ~30 mg/L) very little vancomycin was monitored in the ISF compartment (Cmax~6 mg/L) which is interpreted as a low level of perfusion

[4] = participant 014 (hyper-perfusion phenotype)

With `CN[C@H](CC(C)C)C(=O)N[C@H]1C(=O)N[C@@H](CC(N)=O)C(=O)N[C@H]2C(=O)N[C@H]3C(=O)N[C@H](C(=O)N[C@H](C(=O)O)c4cc(O)cc(O)c4-c4cc3ccc4O)[C@H](O)c3ccc(c(Cl)c3)Oc3cc2cc(c3O[C@@H]2O[C@H](CO)[C@@H](O)[C@H](O)[C@H]2O[C@H]2C[C@](C)(N)[C@H](O)[C@H](C)O2)Oc2ccc(cc2Cl)[C@H]1O` [vancomycin] the Kp [1, 4] was roughly 0.86, the Kp ([1]; participant 015 (moderate-perfusion phenotype)) was roughly 0.3 and the Cmax ([1]; participant 012 (hypo-perfusion phenotype), EAB sensor 812, single 1 gram IV infusion, read every 5 minutes) was roughly 6000 ng/mL. The Cmax ([1]; participant 014 (hyper-perfusion phenotype), EAB sensor 810, single 1 gram IV infusion) was roughly 10000 ng/mL, the Cmax ([1]; participant 015 (moderate-perfusion phenotype), EAB sensor 818, single 1 gram IV infusion, read every 5 minutes) was roughly 10000 ng/mL and the “Physiologic response (skin surface temperature)” value ([2]; participant 012, no elevations above 36° C.) was “no physiologic response”. For the same molecule, the “Adverse reaction to vancomycin” value ([2]; participant 014, temperature elevations above 36° C. recorded, antihistamine treatment required) was “sensitivity response to vancomycin which resulted in hives and itching”, the “Physiologic response (skin surface temperature)” value ([2]; participant 015) was “no elevations depicting a physiological response” and the Cmax ([3]; participant 012 (hypo-perfusion phenotype), 12 blood draws over 12 hours) was roughly 30000 ng/mL. It also gave a Cmax [3, 4] of roughly 35000 ng/mL and a Cmax ([3]; participant 015 (moderate-perfusion phenotype), 12 blood draws over 12 hours) of roughly 30000 ng/mL.
